Reference: patent US20240293416A1, “TREATMENT OF LIVER DISORDERS WITH A THR-ß AGONIST” (Terns Pharmaceuticals, Inc., priority 2021, published 2024)
Entries after “also recorded” stand apart in the source; their conditions may differ.

Legend:
[1] = Single ascending dose trial: plasma and urine pharmacokinetics; format: in vivo, human; conditions: for fe (fraction of dose excreted in urine as unmodified Compound 1): fasted, n = 6, mean (% CV)
Experimental: A single-ascending dose clinical trial of Compound 1 (potassium salt) was performed.
(§1) PK parameters were estimated via noncompartmental methods using Phoenix WinNonlink (Certara, LP, Princeton, NJ). Concentrations of serum pharmacodynamic (PD) biomarkers apolipoprotein B (Apo B) and sex hormone binding globulin (SHBG) were measured using an immunoassay and serum lipids were determined using spectrophotometry.

[2] = system: SHBG, Apo B and serum lipids; experiment: Multiple ascending dose trial: serum PD biomarkers; format: in vivo, human
Experimental: A multiple-ascending dose clinical trial of Compound 1 was performed.
as §1, with “(See Table 5, FIG. 7.) PK” for “PK”, “Phoenix® WinNonlin®” for “Phoenix WinNonlink”
PD sampling was also performed. Percent change from baseline for PD markers were calculated using an ANCOVA model with percent change from baseline as dependent variable, treatment group as fixed effect, and baseline as covariate. Analyses used observed data only without imputation for missing data.

[3] = system: SHBG, LDL-c and other lipid parameters; experiment: Multiple ascending doses in healthy subjects with elevated LDL-c: PD markers; format: in vivo, human; conditions: 1, 3, 6 or 10 mg once daily for 14 days
Text: Secondary Objectives: Evaluate the PK and PD of Compound 1 in healthy subjects with elevated LDL-c following multiple ascending doses of Compound 1.

[4] = system: biopsy-confirmed DIO-NASH mice; experiment: DIO-GAN NASH mice: liver transcriptomics by RNAseq; format: in vivo, C57BL/6JRj mice; conditions: RNAseq at termination
Text: C57BL/6JRj male mice (n=138) were fed the Gubra Amylin NASH (GAN) diet (40% fat, 22% fructose, 2% cholesterol [D09100310, Research Diets]) or lean chow diet for 35 weeks before treatment start. Prior to treatment all animals underwent liver biopsy for histological confirmation (steatosis score ≥2 and fibrosis stage ≥1) and stratification using the nonalcoholic fatty liver disease (NAFLD) activity scoring (NAS) and fibrosis staging system. The diet-induced obese mice on GAN diet (DIO-GAN) were randomized to 8 treatment groups (Table 16) based on percent-area of picrosirius red (PSR) staining. […] Vehicle-dosed lean chow-fed controls served as healthy controls (n=10). Mice were maintained on their respective diets (GAN or lean chow) for the duration of the study. Within-subject comparisons (pre-vs. post-treatment) were performed for liver biopsy histopathological scores. Terminal quantitative endpoints included plasma/liver biochemistry, liver histomorphometry, and liver transcriptomic analysis by RNAseq.
Tissue was collected and snap-frozen in liquid nitrogen and stored at −80 C until processing. RNA was isolated using a NucleoSpin kit ([…]-NAGEL). […]

renal excretion ([1]; all single doses) | fe (fraction of dose excreted in urine as unmodified Compound 1) ([1]; single 3 mg dose) | fe (fraction of dose excreted in urine as unmodified Compound 1) ([1]; single 10 mg dose) | fe (fraction of dose excreted in urine as unmodified Compound 1) ([1]; single 30 mg dose) | fe (fraction of dose excreted in urine as unmodified Compound 1) ([1]; single 60 mg dose) | SMILES | dose proportionality of exposures (AUC, Cmax) ([1]; single doses 3-60 mg) | total cholesterol, LDL-c, Apo B, and triglycerides ([2]; all dose levels) | HDL-c ([2]; day 15) | total cholesterol, LDL-c, Apo B, and triglycerides ([2]; day 15, 10 mg dose cohort) | SHBG ([2]; multiple doses, even at 3 mg QD) | SHBG [3] | circulating atherogenic lipid levels including LDL-c, Apo B, total cholesterol, and triglycerides [3] | liver expression of Col1a1, Acta2, Lgals3 and CD146 relative to DIO-GAN vehicle control [4] | liver expression of Scd1 [4]
Minimal renal excretion | 2.95 (62) % dose, urine | 2.05 (74) % dose, urine | 1.78 (35) % dose, urine | 1.53 (53) % dose, urine | N#Cc1nn(-c2cc(Cl)c(Oc3n[nH]c(=O)c4ccccc34)c(Cl)c2)c(=O)[nH]c1=O [Compound 1, 2-(3,5-dichloro-4-((4-oxo-3,4-dihydrophthalazin-1-yl)oxy)phenyl)-3,5-dioxo-2,3,4,5-tetrahydro-1,2,4-triazine-6-nitrile] | approximately dose-proportional; also recorded: linear and dose-proportional plasma exposures with low variability | Reductions | did not significantly change | significant reductions | significant and dose-dependent increases | increased | significant decreases | – | –
– | – | – | – | – | Cn1cc(C(=O)O)c2ccc(C3CCC(OCc4c(-c5c(Cl)cccc5Cl)noc4C4CC4)CC3)cc21 (centres unmarked) [Compound 2] | – | – | – | – | – | – | – | significantly reduced expression | reduced
